The text below walks through data of US8003369B2, “Bacteriolytic agent” (priority 2005, dated 2011).

The test system of data set [1] is Escherichia coli (E-coli) cell. Nature of the data set: Bacteriolytic power (number of bacterial cells after 3 days vs blank). In kind it is cell-based. Conditions: 50 μl of agent diluted to 50% as surfactant in 0.5 ml E. coli cell solution, 20° C. Here is the method: Into a 2 ml-screw tube were added 0.5 ml of a solution of an Escherichia coli (E-coli) cell and 50 μl of a bacteriolytic agent aqueous diluted solution which had been diluted so as to be a concentration of 50% as a surfactant with a micropipette, and the mixture was mixed well. The mixture was stored by allowing to stand at 20° C. for 3 days, which was used as a sample, and the number of bacterium cells was measured with a super deep profile measurement microscope (manufactured by KEYENCE CORPORATION, VK-8500). Bacteriolytic power was calculated by a following equation.
As a blank, 50 μl of ion-exchanged water was used in place of a bacteriolytic agent aqueous diluted solution. Bacteriolytic power (%)=[1−(the number of bacterial cells in sample after 3 days/the number of bacterial cells of blank)]×100 Determination Criteria: […]

The conditions of data set [2]: cited from earlier work; for pKa (pKa1, first stage dissociation constant): 25° C.

`CC(=O)[O-].CCCCCCCCCC[N+](C)(C)CCCCCCCCCC` [Example 4, acetate salt of didecyldimethylammonium]: the “Bacteriolytic power (score)” value in data set [1] is on record as 5 (Bacteriolytic power ≧ 80%).
As for `O=C(O)CCCCC(=O)O` [adipic acid], in data set [2] (second stage dissociation), the pKa2 is on record as 5.3.
Regarding `O=C(O)CCCCCCCC(=O)O` [azelaic acid], in data set [2], the “pKa (pKa1, first stage dissociation constant)” value was 4.6.
Regarding `CCCCCC(=O)O` [caproic acid], the “pKa (pKa1, first stage dissociation constant)” value in data set [2] is 4.9.
In the case of `CCCCCCCCCC[N+](C)(C)CCCCCCCCCC.[Cl-]` [compound 3, didecyldimethylammonium chloride, reference compound], in data set [1], the “Bacteriolytic power (score)” value was 4 (60% ≦ Bacteriolytic power < 80%).
Regarding `CCOP(=O)(O)O` [ethylphosphoric acid], in data set [2], the “pKa (pKa1, first stage dissociation constant)” value is on record as 1.6.
With `O=C(O)[C@H](O)[C@@H](O)[C@H](O)[C@H](O)CO` [gluconic acid], in data set [2], the “pKa (pKa1, first stage dissociation constant)” value was 2.2.
As for `N[C@@H](CCC(=O)O)C(=O)O` [glutamic acid], the “pKa (pKa1, first stage dissociation constant)” value in data set [2] was 2.3.
For the compound `O=C(O)CCCC(=O)O` [glutaric acid], the “pKa (pKa1, first stage dissociation constant)” value in data set [2] was 4.3.
Consider `COP(=O)(O)O` [methylphosphoric acid], for which, in data set [2], the “pKa (pKa1, first stage dissociation constant)” value is recorded as 1.5.
As to `O=C(O)c1cc(C(=O)O)c(C(=O)O)cc1C(=O)O` [pyromellitic acid], in data set [2], the “pKa (pKa1, first stage dissociation constant)” value is 1.9.
As for “adipate salt of didecyldimethylammonium [Example 3]”, in data set [1], the “Bacteriolytic power (score)” value is on record as 5 (Bacteriolytic power ≧ 80%).
On the same count and under the same terms, the figure for “citric acid salt of didecyldimethylammonium [Example 2]” is 5 (Bacteriolytic power ≧ 80%).
For the compound “cyclopentane tetracarboxylic acid salt of didecyldimethylammonium [Example 1]”, the “Bacteriolytic power (score)” value in data set [1] is reported as 5 (Bacteriolytic power ≧ 80%).
For “cyclopentanetetracarboxylic acid salt of distearyldimethylammonium [Example 5]”, in data set [1], the “Bacteriolytic power (score)” value is reported as 4 (60% ≦ Bacteriolytic power < 80%).
